Data reported in patent publication US10865384B2, “2,4,5-tri-substituted azole-based casein kinase 1 inhibitors as inducers for cardiomyogenesis” (AGENCY FOR SCIENCE, TECHNOLOGY AND RESEARCH, priority 2014, dated 2020).
Where two headings read alike, the source gives them in different places.

What was measured:
p38α MAPK = p38α MAPK (Homo sapiens (Human), UniProt Q16539); assay: HitHunter p38 MAP kinase binding assay
CK1δ = CK1δ (Homo sapiens (Human), UniProt P48730); assay: LanthaScreen Eu kinase binding assay, CK1δ
CK1δ, sequence (P48730 whole entry): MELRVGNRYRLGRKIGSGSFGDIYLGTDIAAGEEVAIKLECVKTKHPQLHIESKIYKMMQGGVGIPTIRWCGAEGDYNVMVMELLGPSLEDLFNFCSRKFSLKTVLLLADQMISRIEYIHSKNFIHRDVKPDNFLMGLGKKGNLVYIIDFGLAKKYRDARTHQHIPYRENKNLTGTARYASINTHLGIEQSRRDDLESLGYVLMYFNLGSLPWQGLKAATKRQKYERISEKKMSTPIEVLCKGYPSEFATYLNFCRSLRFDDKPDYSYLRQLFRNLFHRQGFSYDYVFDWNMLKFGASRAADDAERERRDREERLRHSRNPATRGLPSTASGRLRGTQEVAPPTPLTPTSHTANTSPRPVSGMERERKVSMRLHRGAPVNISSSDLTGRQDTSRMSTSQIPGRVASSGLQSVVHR

CK1ϵ = CK1ϵ (Homo sapiens (Human), UniProt P49674); assay: LanthaScreen Eu kinase binding assay, CK1ϵ
CK1ϵ, sequence (P49674 whole entry): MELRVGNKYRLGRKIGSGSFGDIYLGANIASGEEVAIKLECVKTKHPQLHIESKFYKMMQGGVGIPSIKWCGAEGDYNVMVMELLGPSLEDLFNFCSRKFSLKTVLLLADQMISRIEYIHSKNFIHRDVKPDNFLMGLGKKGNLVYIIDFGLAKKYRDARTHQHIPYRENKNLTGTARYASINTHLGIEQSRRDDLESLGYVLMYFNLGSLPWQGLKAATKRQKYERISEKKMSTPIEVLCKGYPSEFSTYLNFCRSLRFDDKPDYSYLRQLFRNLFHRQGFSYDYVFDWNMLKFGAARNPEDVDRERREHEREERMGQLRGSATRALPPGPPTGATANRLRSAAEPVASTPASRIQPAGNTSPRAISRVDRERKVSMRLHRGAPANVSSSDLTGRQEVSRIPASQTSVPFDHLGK

hESC3 Nkx2.5eGFP/w cells = assay: Differentiation in 96-U bottom ultra-low attachment well plates, GFP area imaging; type: cell-based, human; settings: 5 μM; for Average GFP %: after CHIR99021, read on day 14, GFP area over embryoid body size; for Average GFP μm^2 / Average Area μm^2: day 14; for Average Area μm^2: embryoid body size
[1] = bound given in μM, read-out: p38α MAPK IC50

p38α MAPK, sequence (Q16539 whole entry, looked up): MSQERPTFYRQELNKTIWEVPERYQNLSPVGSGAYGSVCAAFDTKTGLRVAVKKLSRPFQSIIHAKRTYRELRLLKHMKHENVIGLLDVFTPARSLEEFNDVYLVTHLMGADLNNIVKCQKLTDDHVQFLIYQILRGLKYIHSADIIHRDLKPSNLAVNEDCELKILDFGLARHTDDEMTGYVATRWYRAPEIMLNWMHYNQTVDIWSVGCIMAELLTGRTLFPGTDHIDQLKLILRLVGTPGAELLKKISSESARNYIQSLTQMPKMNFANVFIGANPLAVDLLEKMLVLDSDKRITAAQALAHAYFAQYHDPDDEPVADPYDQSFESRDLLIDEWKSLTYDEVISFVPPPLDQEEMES

Structure (SMILES) | IC50 (p38α MAPK; read-out: p38α MAPK IC50 ± SEM) | CK1ϵ inhibition at 1 μM (CK1ϵ) | IC50 (CK1δ; Table 3, read-out: IC50 CK1δ) | IC50 (CK1δ; read-out: CK1δ IC50 ± SEM) | IC50 (CK1ϵ; Table 3, read-out: IC50 Ck1ε) | IC50 (CK1ϵ; read-out: CK1ϵ IC50 ± SEM) | inhibition at 1 µM (CK1δ) | other results
Fc1c(-c2nc(-c3cccc(C(F)(F)F)c3)c(-c3ccncc3)[nH]2)ccc2ccccc12 [IM-02, 4-(2-(1-fluoronaphthalen-2-yl)-4(5)-(3-(trifluoromethyl)phenyl)-1H-imidazol-5(4)-yl)pyridine] | 2.66 ± 0.466 µM | No inhibition at 1 μM |  |  |  |  |  | CK1δ inhibition at 1 μM (CK1δ): No inhibition at 1 μM
Cc1cccc(-c2nc(-c3ccc4ccccc4c3F)[nH]c2C2=CCOCC2)c1 [IM-03, 5(4)-(3,6-dihydro-2H-pyran-4-yl)-2-(1-fluoronaphthalen-2-yl)-4(5)-(m-tolyl)-1H-imidazole] | 0.262 ± 0.073 µM | No inhibition at 1 μM |  |  |  |  |  | CK1δ inhibition at 1 μM (CK1δ): No inhibition at 1 μM
Cc1cccc(-c2nc(-c3ccc4ccccc4c3F)[nH]c2-c2ccncc2)c1 [IM-04] | 0.02 ± 0.007 µM |  | 490 nM | 490 ± 66 nM | 277 nM | 277 ± 40 nM |  | 
Cc1cccc(-c2nc(-c3ccccc3F)[nH]c2C2=CCOCC2)c1 [IM-06, 5(4)-(3,6-dihydro-2H-pyran-4-yl)-2-(2-fluorophenyl)-4(5)-(m-tolyl)-1H-imidazole] | 0.09 ± 0.02 µM | No inhibition at 1 μM |  |  |  |  | 3% | 
COc1ccc2cc(-c3nc(-c4cccc(C)c4)c(C4=CCOCC4)[nH]3)ccc2c1 [IM-09, 5(4)-(3,6-dihydro-2H-pyran-4-yl)-2-(6-methoxynaphthalen-2-yl)-4(5)-(m-tolyl)-1H-imidazole] | 2.35 ± 0.374 µM | No inhibition at 1 μM |  |  |  |  | 13% | 
Cc1cccc(-c2nc(-c3ccccc3)[nH]c2C2=CCOCC2)c1 [IM-11, 5(4)-(3,6-dihydro-2H-pyran-4-yl)-2-phenyl-4(5)-(m-tolyl)-1H-imidazole] | 0.526 ± 0.137 µM | No inhibition at 1 μM |  |  |  |  |  | CK1δ inhibition at 1 μM (CK1δ): No inhibition at 1 μM
Cc1cccc(-c2nc(-c3ccccc3Cl)[nH]c2C2=CCOCC2)c1 [IM-12, 2-(2-chlorophenyl)-5(4)-(3,6-dihydro-2H-pyran-4-yl)-4(5)-(m-tolyl)-1H-imidazole] | 0.043 ± 0.002 µM |  |  |  |  |  | 23% | inhibition at 1 µM (CK1ϵ): 10%
Cc1cccc(-c2nc(-c3ccccc3Br)[nH]c2C2=CCOCC2)c1 [IM-13, 2-(2-bromophenyl)-5(4)-(3,6-dihydro-2H-pyran-4-yl)-4(5)-(m-tolyl)-1H-imidazole] | 0.019 ± 0.002 µM |  |  |  |  |  | 23% | inhibition at 1 µM (CK1ϵ): 23%
Cc1cccc(-c2nc(-c3ccccc3O)[nH]c2C2=CCOCC2)c1 [IM-14, 2-(5(4)-(3,6-dihydro-2H-pyran-4-yl)-4(5)-(m-tolyl)-1H-imidazol-2-yl)phenol] |  |  |  |  |  |  |  | IC50 (p38α MAPK; [1]): > 5 µM; CK1δ inhibition at 1 μM (CK1δ): No inhibition at 1 μM; inhibition at 1 µM (CK1ϵ): 3%
Cc1cccc(-c2nc(-c3ccc(O)cc3)[nH]c2C2=CCOCC2)c1 [IM-15, 4-(5(4)-(3,6-dihydro-2H-pyran-4-yl)-4(5)-(m-tolyl)-1H-imidazol-2-yl)phenol] | 0.033 ± 0.002 µM | No inhibition at 1 μM |  |  |  |  |  | CK1δ inhibition at 1 μM (CK1δ): No inhibition at 1 μM
Cc1cccc(-c2nc(-c3ccc([S+](C)[O-])cc3)[nH]c2C2=CCOCC2)c1 (centres unmarked) [IM-16] | 0.073 ± 0.021 µM |  | 2540 nM | 2540 nM | 5610 nM | 5610 ± 319 nM |  | 
Cc1cccc(-c2nc(-c3ccc([N+](=O)[O-])cc3)[nH]c2C2=CCOCC2)c1 [IM-17, 5(4)-(3,6-dihydro-2H-pyran-4-yl)-2-(4-nitrophenyl)-4(5)-(m-tolyl)-1H-imidazole] | 0.02 ± 0.002 µM | No inhibition at 1 μM |  |  |  |  | 17% | 
Cc1cccc(-c2nc(-c3c(F)cccc3F)[nH]c2C2=CCOCC2)c1 [IM-18, 2-(2,6-difluorophenyl)-5(4)-(3,6-dihydro-2H-pyran-4-yl)-4(5)-(m-tolyl)-1H-imidazole] | 0.014 ± 0.002 µM |  |  |  |  | 1240 ± 437 nM | 3% | 
Cc1cccc(-c2nc(-c3ccccc3F)[nH]c2-c2ccncc2)c1 [IM-19] | 0.0047 ± 0.0012 µM |  | 454 nM | 454 ± 28 nM | 150 nM | 150 ± 89 nM |  | 
Fc1ccc(-c2nc(-c3ccccc3F)[nH]c2C2=CCOCC2)cc1 [IM-20, 5(4)-(3,6-dihydro-2H-pyran-4-yl)-2-(2-fluorophenyl)-4(5)-(4-fluorophenyl)-1H-imidazole] | 0.561 ± 0.141 µM |  | 1520 nM | 1520 ± 825 nM | 1140 nM | 1140 ± 287 nM |  | 
Cc1ccc(-c2nc(-c3ccccc3F)[nH]c2C2=CCOCC2)cc1 [IM-21, 5(4)-(3,6-dihydro-2H-pyran-4-yl)-2-(2-fluorophenyl)-4(5)-(p-tolyl)-1H-imidazole] | 3.37 ± 0.824 µM | No inhibition at 1 μM |  |  |  |  |  | CK1δ inhibition at 1 μM (CK1δ): No inhibition at 1 μM
Fc1ccc(-c2nc(-c3ccc4ccccc4c3F)[nH]c2C2=CCOCC2)cc1 [IM-22, 5(4)-(3,6-dihydro-2H-pyran-4-yl)-2-(1-fluoronaphthalen-2-yl)-4(5)-(4-fluorophenyl)-1H-imidazole] | 2.31 ± 0.714 µM | No inhibition at 1 μM |  |  |  |  | 14% | 
Fc1ccc(-c2nc(-c3c(F)cccc3F)[nH]c2C2=CCOCC2)cc1 [IM-23, 2-(2,6-difluorophenyl)-5(4)-(3,6-dihydro-2H-pyran-4-yl)-4(5)-(4-fluorophenyl)-1H-imidazole] | 0.055 ± 0.014 µM |  | 548 nM | 548 ± 116 nM | 751 nM | 751 ± 168 nM |  | 
Oc1ccc(-c2nc(-c3ccc(F)cc3)c(C3=CCOCC3)[nH]2)cc1 [IM-24, 4-(5(4)-(3,6-dihydro-2H-pyran-4-yl)-4(5)-(4-fluorophenyl)-1H-imidazol-2-yl)phenol] | 0.149 ± 0.033 µM | No inhibition at 1 μM |  |  |  |  | 14% | 
C[S+]([O-])c1ccc(-c2nc(-c3ccc(F)cc3)c(C3=CCOCC3)[nH]2)cc1 (centres unmarked) [IM-25] | 0.454 ± 0.067 µM |  | 1490 nM | 1490 ± 285 nM | 5890 nM | 5890 ± 180 nM |  | 
Cc1cccc(-c2nc(-c3c(F)cccc3F)[nH]c2-c2ccncc2)c1 [IM-26] | 0.0043 ± 0.0017 µM |  | 78 nM | 78 ± 20 nM | 44 nM | 44 ± 5 nM |  | 
Cc1cccc(-c2nc(-c3ccc(O)cc3)[nH]c2-c2ccncc2)c1 [IM-27] | 0.0084 ± 0.003 µM |  | 1280 nM | 1280 ± 828 nM | 411 nM | 411 ± 120 nM |  | 
Cc1cccc(-c2nc(-c3ccc([S+](C)[O-])cc3)[nH]c2-c2ccncc2)c1 (centres unmarked) [IM-28] | 0.024 ± 0.009 µM |  | 708 nM | 708 ± 43 nM | 274 nM | 274 ± 7 nM |  | 
Fc1ccc(-c2nc(-c3ccc4ccccc4c3F)[nH]c2-c2ccncc2)cc1 [IM-29, 4-(2-(1-fluoronaphthalen-2-yl)-4(5)-(4-fluorophenyl)-1H-imidazol-5(4)-yl)pyridine] | 0.073 ± 0.017 µM |  | 15 nM | 15 ± 3 nM |  | 16 ± 3 nM |  | IC50 (CK1ϵ; read-out: IC50 Ck1ε): 16 nM
Fc1ccc(-c2nc(-c3ccccc3F)[nH]c2-c2ccncc2)cc1 [IM-30, 4-(2-(2-fluorophenyl)-4(5)-(4-fluorophenyl)-1H-imidazol-5(4)-yl)pyridine] | 0.02 ± 0.004 µM |  | 32 nM | 32 ± 4 nM | 32 nM | 32 ± 4 nM |  | Cardiogenic properties (hESC3 Nkx2.5eGFP/w cells; at specific time course (induction day 2 or 3)): higher cardiogenic properties as SB203580 and IWP-2; Average GFP % (hESC3 Nkx2.5eGFP/w cells; Induction Day 2): 32.8%; Average GFP μm^2 (hESC3 Nkx2.5eGFP/w cells; Induction Day 2): 250.1 μm^2; Average Area μm^2 (hESC3 Nkx2.5eGFP/w cells; Induction Day 2): 816.0 μm^2; Average GFP % (hESC3 Nkx2.5eGFP/w cells; Induction Day 3): 36.5%; Average GFP μm^2 (hESC3 Nkx2.5eGFP/w cells; Induction Day 3): 354.1 μm^2; Average Area μm^2 (hESC3 Nkx2.5eGFP/w cells; Induction Day 3): 968.7 μm^2
C[S+]([O-])c1ccc(-c2nc(-c3ccc(F)cc3)c(-c3ccncc3)o2)cc1 (centres unmarked) [OZ-06] | 0.314 ± 0.044 µM |  |  |  |  |  | 46% | inhibition at 1 µM (CK1ϵ): 54%
C[S+]([O-])c1ccc(-c2nc(-c3ccncc3)c(-c3ccc(F)cc3)o2)cc1 (centres unmarked) [OZ-12, 5-(4-fluorophenyl)-2-(4-(methylsulfinyl)phenyl)-4-(pyridin-4-yl)oxazole] |  |  |  |  |  |  | 34% | IC50 (p38α MAPK; [1]): > 5 µM; inhibition at 1 µM (CK1ϵ): 51%
